This is an account of results in article PMC5045939, “Comparison of [^11C]TZ1964B and [^18F]MNI659 for PET imaging brain PDE10A in nonhuman primates” (Pharmacology Research & Perspectives, 2016).

Series [1] in a line: radiometabolite analysis of NHP arterial plasma by HPLC. It counts as in vivo, cynomolgus monkey. Conditions: 60 min post injection, n = 1. As for the experimental part: The radiometabolite analysis was performed according to previous reports (Tu et al. 2011, 2015). Arterial blood samples (1.2–1.5 mL) were collected in a heparinized syringe at 2, 5, 15, 30, and 60 min (for [^11C]TZ1964B) or 5, 15 30, 60, 90, and 120 min (for [^18F]MNI659) postinjection of each radiotracer. Plasma (400 μL) was collected by centrifugation of the whole blood and mixed with ice‐cold methanol (0.92 mL) to deproteinate and extract the parent compound and radiolabeled metabolites. After centrifugation, the supernatant was mixed with water (1/1, v/v), and loaded onto a HPLC system with an Agilent SB C‐18 analytical HPLC column (250 mm × 4.6 mm, 5 μ) and a UV detector with 254 nm wavelength. The mobile phase was acetonitrile/0.1 mol/L ammonium formate buffer pH 4.5, (52/48, v/v) with a flow rate of 1.0 mL/min. The eluted fractions were collected for 16 min at 1 min intervals; the radioactivity of in each fraction was counted in a well counter, and results were corrected for background radiation and physical decay.

Series [2] relates to PDE10A. Put plainly: microPET imaging of NHP brain, reference-based kinetic analysis and AUC ratio. Conditions: for AUC ratio: 60-120 min; for AUC ratio / BPND-Logan / BPND-SRTM / AUC ratio (Stri/Cere) / R1 / k2: mean ± SD; for AUC ratio (Stri/Cere): NHP striatum to cerebellum, 60-120 min data; for time of peak (max SUV) striatal uptake: post injection, averaged SUV curves. In kind it is in vivo, cynomolgus monkey. As for the experimental part:
PET imaging studies were carried out on two adult male cynomolgus monkeys, weighing on 7–8 kg. Subject A underwent three sets of double scans, and Subject B underwent one set of double scans. Animals were prepared for microPET studies as previously reported (Liu et al. 2015). About 1.5–2.5% isoflurane inhalation anesthesia was maintained throughout the microPET imaging sessions. A 20‐gage plastic catheter was inserted into a limb vein to permit hydration and injection of the radiotracer. Arterial blood was collected through another 20‐gage plastic catheter which was placed into a femoral artery.
The imaging studies of [^11C]TZ1964B and [^18F]MNI659 in the NHP brain through double scans were done using a MicroPET Focus 220 scanner (Concorde/CTI/Siemens Microsystems, Knoxville, TN). For all the double scans, [^11C]TZ1964B studies were performed in the morning and [^18F]MNI659 in the afternoon, with an interval of ~3 h between the injection of each tracer. Prior to each PET acquisition, a 45‐min transmission scan for attenuation correction was performed following a 10 min transmission that was used to check the position of the brain within the scanner. Subsequently, 296–370 MBq of [^11C]TZ1964B or [^18F]MNI659 was intravenously injected, and a 120 min dynamic (3 × 1‐min frames, 4 × 2‐min frames, 3 × 3‐min frames, and 20 × 5‐min frames) PET scan was acquired.
The PET images were processed according to the previous report (Liu et al. 2015). Briefly, emission scans were corrected and reconstructed using filtered back projection as described previously (Miller et al. 1989). The final reconstructed resolution was 2.00 mm full width at half maximum (FWHM) for all three dimensions (axial) at center of the field of view. The actual field of view is 25.8 cm diameter and a 7.6 cm axial length. The reconstructed PET images was co‐registered with magnetization‐prepared rapid gradient echo (MP‐RAGE) MR images using Automated Image Registration (AIR) (Woods et al. 1993), and superimposed using Analyze 10.0 (AnalyzeDirect, Overland Park, KS) for quality control. For quantitative analyses, three‐dimensional regions of interest (ROIs) for cerebellum (Subject A: 583 voxels; Subject B: 750 voxels, the voxel size is 1.858 mm × 1.858 mm × 0.796 mm = 2.75 μL), striatum (A: 695 voxels; B: 1158 voxels), frontal cortex (A: 263 voxels; B: 225 voxels), midbrain (A: 64 voxels; B: 118 voxels), and hippocampus (A: 68 voxels; B: 64 voxels) were identified on MRI images and then transformed into PET images using the co‐registration transformation matrix. The ROIs for each animal were kept fixed for all subsequent studies once identified on a baseline scan. Time–activity curves (TACs) for each ROI were then obtained from the dynamic PET images. Standardized uptake value (SUV) of each tracer was calculated and standardized to the body weight and the injected dose of radioactivity.
Regional tracer uptake was quantified using two different reference‐based kinetic methods: Logan Reference (LoganREF) model (Logan et al. 1990, 1996; Innis et al. 2007; Liu et al. 2015) and simplified reference tissue model (SRTM) (Lammertsma and Hume 1996; Gunn et al. 1997; Innis et al. 2007; Liu et al. 2015). According to the LoganREF model, the distribution volume ratio (DVR) of each ROI was calculated using a MATLAB (Mathworks Inc., Natick, MA). The nondisplaceable binding potential (BPND) was then estimated: BPND = DVR‐1. BPND and R1, k 2 values were also obtained from the SRTM model (Lammertsma and Hume 1996; Watabe et al. 1996).
We also calculated the area under the time–activity curve (AUC) for the striatal to cerebellar ratio (AUC‐striatum/AUC‐cerebellum); this is a simple model and input function‐independent method to quantify an index of tracer accumulation in the brain (Muller Herde et al. 2015). […] Ideally, the AUC ratio equals the DVR determined by LoganREF model (Muller Herde et al. 2015). […]

Series [3] deals with PDE10A. Conditions: cited from earlier work.
Series [4] concerns the target PDE10A. Conditions: cited from earlier work. This is another data set of the same source.
A short description of series [5]: Log P measurement, 1-octanol/PBS pH 7.4. In kind it is physicochemical. The settings on record: 1-octanol / 0.1 mol/L PBS pH 7.4, Log D7.4 taken as Log P. The protocol:
Log P was measured according to the previous report (Li et al. 2013b), by adding different volumes of [^11C]TZ1964B or [^18F]MNI659 into a mixture of 1‐octanol (3 mL) and 0.1 mol/L phosphate‐buffered saline (PBS, pH 7.4, 3 mL). The mixture was vortexed and then centrifuged. Then, 2 mL organic layer was mixed with 1 mL 1‐octanol and 3 mL PBS buffer. The resulting mixture was vortexed and centrifuged again. Then 1 mL of the organic layer and 1 mL of the aqueous layer were separated and loaded in a gamma counter. The results were corrected for background radiation and physical decay. The partition coefficient Log D7.4, which equals Log P, was calculated as the decimal logarithm the ratio of cpm/mL of 1‐octanol to that of PBS.

Setting [6] is: NHP frontal cortex to cerebellum.
Setting [7] is: NHP midbrain to cerebellum, n = 4 scans in 2 NHPs.
[8] abbreviates: NHP striatum, LoganREF model, cerebellum reference, n = 4 scans in 2 NHPs.
Setting [9] is: NHP striatum, SRTM, cerebellum reference, n = 4 scans in 2 NHPs.
[10] abbreviates: Figure 1, no reference given, read-out: Kd.

Several values for one entry are separate records, joined by “and”; a condition that tells them apart may be missing. Identical values can stand only once. Like-named read-outs stand apart in the source and are kept apart here.

What is called Ki is a measure of affinity in units of concentration, obtained from inhibition or displacement. As a reminder, the logP is the decadic logarithm of the partition coefficient of the neutral form, usually between octanol and water. Read a high logP as a more lipophilic compound. On to `Cn1cc(-c2ccncc2)c(-c2ccc(OCc3nc4ccccc4cc3O[11CH3])cc2)n1` [[^11C]TZ1964B, 3‐[^11C]methoxy‐2‐((4‐(1‐methyl‐4‐(pyridin‐4‐yl)‐1H‐pyrazol‐3‐yl)phenoxy)methyl)‐quinoline], for which the “percentage of parent compound in plasma” value in series [1] is given as ~ 70%. Also, the AUC ratio was 1.38 ± 0.13 in the series with PDE10A [2] (setting [6]), 1.35 ± 0.41 with PDE10A [2] (NHP hippocampus to cerebellum) and 1.51 ± 0.47 with PDE10A [2] (setting [7]). Also, the BPND-Logan is 0.15 ± 0.05 in the series on PDE10A [2] (NHP frontal cortex); 0.11 ± 0.25 in the series on PDE10A [2] (NHP hippocampus); 0.26 ± 0.20 in the series on PDE10A [2] (NHP midbrain); 3.72 and 3.72 ± 0.62 in the series with PDE10A [2] (setting [8]). Further, the BPND-SRTM is 0.43 ± 0.28 in the series on PDE10A [2] (NHP frontal cortex); 0.32 ± 0.50 in the series with PDE10A [2] (NHP hippocampus); 0.57 ± 0.30 in the series with PDE10A [2] (NHP midbrain); 4.39 and 4.39 ± 0.39 in the series on PDE10A [2] (setting [9]). Moreover, the “AUC ratio (Stri/Cere)” value in the series on PDE10A [2] (n = 4 scans in 2 NHPs) was 5.87 and 5.87 ± 0.45. For the same compound, in the series with PDE10A [2] (NHP striatum, SRTM), the R1 is given as 1.16 ± 0.17. For the same compound, in the series on PDE10A [2] (NHP striatum, SRTM), the k2 worked out at 0.13 ± 0.017 min⁻¹. Besides, the “time of peak (max SUV) striatal uptake” value in the series on PDE10A [2] (NHP striatum) lay within 40 to 60 min. For the same compound, on PDE10A [3] (setting [10]), the Kd was 1.25 ± 0.2 nM. Moreover, on PDE10A [4] (Figure 1, no reference given), the Ki was 0.4 ± 0.02 nM. In series [5], this compound yielded a logP of 1.98 ± 0.09.

In the case of `Cc1ccc2c(=O)n(-c3ccc(OCC[18F])cc3)c(CCN3C(=O)c4cccc(OC(C)C)c4C3=O)nc2c1` [[^18F]MNI659, 2‐(2‐(3‐(4‐(2‐[^18F]fluoroethoxy)phenyl)‐7‐methyl‐4‐oxo‐3,4‐dihydroquinazolin‐2‐yl)ethyl)‐4‐isopropoxyisoindoline‐1,3‐dione], in series [1], the “percentage of parent compound in plasma” value is listed as ~ 50%. Further, the AUC ratio in the series with PDE10A [2] (setting [6]) is listed as 1.37 ± 0.12; in the series with PDE10A [2] (NHP hippocampus to cerebellum), 1.08 ± 0.23; in the series on PDE10A [2] (setting [7]) it was 2.59 ± 0.42. In addition, the BPND-Logan in the series with PDE10A [2] (NHP frontal cortex) is 0.29 ± 0.10; with PDE10A [2] (NHP hippocampus), 0.11 ± 0.18; with PDE10A [2] (NHP midbrain), 1.02 ± 0.14; in the series with PDE10A [2] (setting [8]) it was 5.08 and 5.08 ± 1.62. The BPND-SRTM with PDE10A [2] (NHP frontal cortex) was 0.29 ± 0.09; with PDE10A [2] (NHP hippocampus), 0.16 ± 0.20; in the series on PDE10A [2] (NHP midbrain), 1.11 ± 0.16; with PDE10A [2] (setting [9]) it was 5.33 and 5.33 ± 1.36. Moreover, in the series with PDE10A [2] (n = 4 scans in 2 NHPs), the “AUC ratio (Stri/Cere)” value was 7.60 and 7.60 ± 2.68. The “striatal K2 value relative to [^11C]TZ1964B” value with PDE10A [2] (NHP striatum, SRTM) is reported as “twofold”. Besides, the R1 with PDE10A [2] (NHP striatum, SRTM) was found to be 1.20 ± 0.20. Also, the k2 in the series on PDE10A [2] (NHP striatum, SRTM) amounted to 0.28 ± 0.13 min⁻¹. The “time of peak (max SUV) striatal uptake” value in the series on PDE10A [2] (NHP striatum) is “about 10 min”. Further, at PDE10A [3] (setting [10]), the Kd is 0.097 nM. This compound also showed a logP in series [5] of 1.98 ± 0.06.

As a reminder, the IC50 is the concentration that gives 50% inhibition. For `COc1cc2ccccc2nc1COc1ccc(-c2nn(C)cc2-c2ccncc2)cc1` [TZ1964B], the IC50 in the series on PDE10A [4] (in vitro binding potency, ref Li et al. 2013a, read-out: IC50 toward PDE10A) is 0.4 ± 0.02 nM. The same compound yielded a logP in series [5] of 1.98.

`Cc1ccc2c(=O)n(-c3ccc(OCCF)cc3)c(CCN3C(=O)c4cccc(OC(C)C)c4C3=O)nc2c1` [MNI659]: the Kd at PDE10A [3] (in vitro, given as Kd in Figure 1, ref Barret et al. 2014, read-out: binding potency for PDE10A) is 0.097 nM. Also, the logP in series [5] came to 1.98.
